Key:
[1] = system: S. aureus Newman; assay: Bliss interaction score (quartile over a dose matrix) (fitness difference); higher = more antagonism (negative = synergy)
In short: (§1)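 The Bliss score is observed minus expected fitness under the product model, reported as quartiles over technical, biological and donor/recipient replicates. Fitness is the OD595 at entry into stationary phase divided by the plate's robust no-drug mean and capped at 1. Single-drug fitness was inferred from combination data.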

[2] = system: B. subtilis 168; assay: as above
In short: as §1

[3] = system: S. pneumoniae D39V; assay: as above
In short: as §1

[4] = system: S. aureus DSM 20231; assay: as above
In short: as §1

[5] = system: S. pneumoniae D39V; assay: fitness (endpoint OD595 vs no drug) (fraction); higher = more growth
In short: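 Each well of a 384-well plate received 30 µl of culture at OD595 0.01, or 55 µl for S. pneumoniae. TSB, LB Lennox or CY served as media at 37 °C. OD595 was taken every 30 min for 14 h and corrected by subtracting the first reading. Fitness is the optical density at stationary-phase entry divided by the robust mean of no-drug controls, capped at 1.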
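For Bliss interaction score (quartile over a dose matrix) in this document: first quartile when negative (synergy) and third quartile when positive (antagonism).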

CC[C@H]1OC(=O)[C@H](C)[C@@H](O[C@H]2C[C@@](C)(OC)[C@@H](O)[C@H](C)O2)[C@H](C)[C@@H](O[C@@H]2O[C@H](C)C[C@H](N(C)C)[C@H]2O)[C@](C)(OC)C[C@@H](C)C(=O)[C@H](C)[C@@H](O)[C@]1(C)O [Clarithromycin] + CO[C@H]1/C=C/O[C@@]2(C)Oc3c(C)c(O)c4c(O)c(c(/C=N/N5CCN(C)CC5)c(O)c4c3C2=O)NC(=O)/C(C)=C\C=C\[C@H](C)[C@H](O)[C@@H](C)[C@@H](O)[C@@H](C)[C@H](OC(C)=O)[C@@H]1C [Rifampicin]
Settings | Bliss interaction score
[1] | 0.0434
[2] | 0.0788
[3] | 0.0654
[4] | 0.0272

fitness, [5], one replicate
Settings | first compound 0.007812 µg/mL | first compound 0.01562 µg/mL | first compound 0.03125 µg/mL | first compound 0.0625 µg/mL | first compound 0.125 µg/mL | first compound 0.25 µg/mL
partner 0.025 µg/mL | – | – | – | 0.395 | 0.245 | 0.155
partner 0.05 µg/mL | 0.647 | 0.466 | 0.293 | – | – | –
partner 0.1 µg/mL | 0.262 | 0.213 | 0.219 | – | – | –
partner 0.2 µg/mL | 0.122 | 0.15 | 0.196 | 0 | 0 | 0

fitness, [5]
Settings | first compound 0.0625 µg/mL | first compound 0.07 µg/mL | first compound 0.125 µg/mL | first compound 0.14 µg/mL | first compound 0.25 µg/mL | first compound 0.28 µg/mL
partner 0.025 µg/mL | – | 0.161 | – | 0.109 | – | 0.121
partner 0.05 µg/mL | 0.362 | 0.17 | 0.215 | 0.164 | 0.108 | 0.102
partner 0.1 µg/mL | 0.177 | 0.118 | 0.119 | 0.0954 | 0.114 | 0.138

CC[C@H]1OC(=O)[C@H](C)[C@@H](O[C@H]2C[C@@](C)(OC)[C@@H](O)[C@H](C)O2)[C@H](C)[C@@H](O[C@@H]2O[C@H](C)C[C@H](N(C)C)[C@H]2O)[C@](C)(OC)C[C@@H](C)C(=O)[C@H](C)[C@@H](O)[C@]1(C)O [Clarithromycin] + COc1c(N2C[C@@H]3CCCN[C@@H]3C2)c(F)cc2c(=O)c(C(=O)O)cn(C3CC3)c12 [Moxifloxacin]
Settings | Bliss interaction score
[1] | 0.123
[2] | 0.0403
[3] | 0.0742
[4] | 0.0891

fitness, [5], one replicate
Settings | first compound 0.007812 µg/mL | first compound 0.01562 µg/mL | first compound 0.03125 µg/mL
partner 0.0037 µg/mL | 0.834 | 0.823 | 0.648
partner 0.0075 µg/mL | 0.85 | 0.82 | 0.6
partner 0.015 µg/mL | 0.818 | 0.765 | 0.572

fitness, [5]
Settings | partner 0.005 µg/mL | partner 0.01 µg/mL | partner 0.02 µg/mL | partner 0.0312 µg/mL | partner 0.0625 µg/mL | partner 0.125 µg/mL
first compound 0.0625 µg/mL | 0.716 | 0.748 | 0.717 | – | – | –
first compound 0.07 µg/mL | – | – | – | 0.056 | 0.0339 | 0.0389
first compound 0.14 µg/mL | – | – | – | 0.0451 | 0.0439 | 0.0343
first compound 0.25 µg/mL | 0.217 | 0.235 | 0.238 | – | – | –
first compound 0.28 µg/mL | – | – | – | 0.0421 | 0.0312 | 0.0325

CC[C@H]1OC(=O)[C@H](C)[C@@H](O[C@H]2C[C@@](C)(OC)[C@@H](O)[C@H](C)O2)[C@H](C)[C@@H](O[C@@H]2O[C@H](C)C[C@H](N(C)C)[C@H]2O)[C@](C)(OC)C[C@@H](C)C(=O)[C@H](C)[C@@H](O)[C@]1(C)O [Clarithromycin] + COc1ccc(C[C@H](N)C(=O)N[C@H]2[C@@H](O)[C@H](n3cnc4c(N(C)C)ncnc43)O[C@@H]2CO)cc1 [Puromycin]
Settings | Bliss interaction score
[1] | -0.0662
[2] | 0.0559
[3] | -0.0827
[4] | 0.0616

fitness, [5], one replicate
Settings | first compound 0.007812 µg/mL | first compound 0.01562 µg/mL | first compound 0.03125 µg/mL | first compound 0.0625 µg/mL | first compound 0.125 µg/mL | first compound 0.25 µg/mL
partner 1 µg/mL | 0.947 | 0.867 | 0.676 | 0.419 | 0.138 | 0.112
partner 2 µg/mL | 0.839 | 0.805 | 0.612 | 0.504 | 0.192 | 0.0762
partner 4 µg/mL | 0.667 | 0.617 | 0.467 | 0.255 | 0.15 | 0.134

fitness, [5]
Settings | first compound 0.07 µg/mL | first compound 0.14 µg/mL | first compound 0.28 µg/mL
partner 1 µg/mL | 0.131 | 0.0877 | 0.11
partner 2 µg/mL | 0.125 | 0.096 | 0.0799
partner 4 µg/mL | 0.12 | 0.122 | 0.0797

CC[C@H]1OC(=O)[C@H](C)[C@@H](O[C@H]2C[C@@](C)(OC)[C@@H](O)[C@H](C)O2)[C@H](C)[C@@H](O[C@@H]2O[C@H](C)C[C@H](N(C)C)[C@H]2O)[C@](C)(OC)C[C@@H](C)C(=O)[C@H](C)[C@@H](O)[C@]1(C)O [Clarithromycin] + COc1cccc2c1C(=O)c1c(O)c3c(c(O)c1C2=O)C[C@@](O)(C(=O)CO)C[C@@H]3O[C@H]1C[C@H](N)[C@H](O)[C@H](C)O1 [Doxorubicin]
Settings | Bliss interaction score
[1] | 0.105
[2] | 0.0718
[3] | -0.0578
[4] | 0.0858

fitness, [5], one replicate
Settings | first compound 0.007812 µg/mL | first compound 0.01562 µg/mL | first compound 0.03125 µg/mL
partner 0.25 µg/mL | 0.866 | 0.825 | 0.633
partner 0.5 µg/mL | 0.841 | 0.798 | 0.621
partner 1 µg/mL | 0.794 | 0.777 | 0.608

fitness, [5]
Settings | first compound 0.0625 µg/mL | first compound 0.07 µg/mL | first compound 0.125 µg/mL | first compound 0.14 µg/mL | first compound 0.25 µg/mL | first compound 0.28 µg/mL
partner 0.25 µg/mL | 0.457 | 0.112 | 0.277 | 0.0456 | 0.077 | 0.0403
partner 0.5 µg/mL | 0.495 | 0.106 | 0.295 | 0.0366 | 0.107 | 0.0281
partner 1 µg/mL | 0.411 | 0.103 | 0.188 | 0.0523 | 0.0684 | 0.0955

CC[C@H]1OC(=O)[C@H](C)[C@@H](O[C@H]2C[C@@](C)(OC)[C@@H](O)[C@H](C)O2)[C@H](C)[C@@H](O[C@@H]2O[C@H](C)C[C@H](N(C)C)[C@H]2O)[C@](C)(OC)C[C@@H](C)C(=O)[C@H](C)[C@@H](O)[C@]1(C)O [Clarithromycin] + C[C@@H]1O[C@@H]1P(=O)(O)O [Fosfomycin]
Settings | Bliss interaction score
[1] | -0.114
[2] | 0.0504
[3] | 0.0544
[4] | -0.0843

fitness, [5], one replicate
Settings | first compound 0.007812 µg/mL | first compound 0.01562 µg/mL | first compound 0.03125 µg/mL
partner 1.25 µg/mL | 0.863 | 0.828 | 0.641
partner 2.5 µg/mL | 0.775 | 0.804 | 0.634
partner 5 µg/mL | 0.669 | 0.63 | 0.559

fitness, [5]
Settings | first compound 0.0625 µg/mL | first compound 0.07 µg/mL | first compound 0.125 µg/mL | first compound 0.14 µg/mL | first compound 0.25 µg/mL | first compound 0.28 µg/mL
partner 1.25 µg/mL | 0.543 | 0.171 | 0.332 | 0.088 | 0.139 | 0.102
partner 2.5 µg/mL | 0.538 | 0.102 | 0.323 | 0.0599 | 0.13 | 0.0306
partner 5 µg/mL | 0.485 | 0.0461 | 0.288 | 0.057 | 0.132 | 0.0557

CC[C@H]1OC(=O)[C@H](C)[C@@H](O[C@H]2C[C@@](C)(OC)[C@@H](O)[C@H](C)O2)[C@H](C)[C@@H](O[C@@H]2O[C@H](C)C[C@H](N(C)C)[C@H]2O)[C@](C)(OC)C[C@@H](C)C(=O)[C@H](C)[C@@H](O)[C@]1(C)O [Clarithromycin] + C[C@@H](O)[C@H]1C(=O)N2C(C(=O)O)=C(SCCNC=N)C[C@H]12 [Imipenem]
Settings | Bliss interaction score
[1] | 0.0267
[2] | 0.0428
[3] | -0.085
[4] | 0.0295

fitness, [5], one replicate
Settings | first compound 0.007812 µg/mL | first compound 0.01562 µg/mL | first compound 0.03125 µg/mL
partner 0.005 µg/mL | 0.831 | 0.812 | 0.589
partner 0.01 µg/mL | 0.855 | 0.837 | 0.612
partner 0.02 µg/mL | 0.858 | 0.844 | 0.629

fitness, [5]
Settings | first compound 0.0625 µg/mL | first compound 0.07 µg/mL | first compound 0.125 µg/mL | first compound 0.14 µg/mL | first compound 0.25 µg/mL | first compound 0.28 µg/mL
partner 0.005 µg/mL | – | 0.13 | – | 0.0799 | – | 0.0611
partner 0.0065 µg/mL | 0.541 | – | 0.154 | – | 0.0361 | –
partner 0.01 µg/mL | – | 0.146 | – | 0.0799 | – | 0.0532
partner 0.013 µg/mL | 0.661 | – | 0.277 | – | 0.0557 | –
partner 0.02 µg/mL | – | 0.17 | – | 0.109 | – | 0.0635
partner 0.026 µg/mL | 0.621 | – | 0.201 | – | 0.0493 | –

CC[C@H]1OC(=O)[C@H](C)[C@@H](O[C@H]2C[C@@](C)(OC)[C@@H](O)[C@H](C)O2)[C@H](C)[C@@H](O[C@@H]2O[C@H](C)C[C@H](N(C)C)[C@H]2O)[C@](C)(OC)C[C@@H](C)C(=O)[C@H](C)[C@@H](O)[C@]1(C)O [Clarithromycin] + C[C@H]1COc2c(N3CCN(C)CC3)c(F)cc3c(=O)c(C(=O)O)cn1c23 [Levofloxacin]
Settings | Bliss interaction score
[1] | 0.0872
[2] | 0.0707
[3] | -0.0537
[4] | 0.0901

fitness, [5], one replicate
Settings | first compound 0.007812 µg/mL | first compound 0.01562 µg/mL | first compound 0.03125 µg/mL
partner 0.2 µg/mL | 0.782 | 0.811 | 0.599
partner 0.4 µg/mL | 0.646 | 0.726 | 0.533
partner 0.8 µg/mL | 0.257 | 0.316 | 0.244

[5]
Settings | fitness
first compound 0.0625 µg/mL, partner 0.1725 µg/mL | 0.701
first compound 0.0625 µg/mL, partner 0.345 µg/mL | 0.691
first compound 0.0625 µg/mL, partner 0.69 µg/mL | 0.371
first compound 0.07 µg/mL, partner 0.2 µg/mL | 0.139
first compound 0.07 µg/mL, partner 0.4 µg/mL | 0.134
first compound 0.07 µg/mL, partner 0.8 µg/mL | 0.0857
first compound 0.125 µg/mL, partner 0.1725 µg/mL | 0.486
first compound 0.125 µg/mL, partner 0.345 µg/mL | 0.463
first compound 0.125 µg/mL, partner 0.69 µg/mL | 0.349
first compound 0.14 µg/mL, partner 0.2 µg/mL | 0.0726
first compound 0.14 µg/mL, partner 0.4 µg/mL | 0.0532
first compound 0.14 µg/mL, partner 0.8 µg/mL | 0.063
first compound 0.25 µg/mL, partner 0.69 µg/mL | 0.242
first compound 0.28 µg/mL, partner 0.2 µg/mL | 0.0574
first compound 0.28 µg/mL, partner 0.4 µg/mL | 0.0463
first compound 0.28 µg/mL, partner 0.8 µg/mL | 0.0433

— the supplement of paper PMC10627819
